The assay has as its system HBV. As to the kind of experiment: Anti-HBV assay: HBV DNA in supernatants of HBV-producing cells (HepG2 2.2.15, P5A cell line), immunoaffinity capture, PCR and hybrid-capture detection. In kind it is cell-based, Hepatitis B virus. Particulars: table headed Anti-HCMV Activity. The procedure:
Anti-HBV activity of compounds of formula (I) and (I-1) was determined with a high-capacity assay for assessing efficacy. Supernatants from growing HBV-producing cells (HepG2 2.2.15, P5A cell line) in 96-well plates are applied to microtiter plate wells which have been coated with a specific monoclonal antibody to HBV surface antigen (HBsAg). Virus particles present in the supernatants bind to the antibody and remain immobilized while other debris is removed by washing. These virus particles are then denatured to release HBV DNA strands which are subsequently amplified by the polymerase chain reaction and detected with a colorimetric hybrid-capture assay. Quantitation is achieved through fitting of a standard curve to dilutions of a cell supernatant with known HBV DNA content. By comparing HBV DNA levels of untreated control cell supernatants with supernatants containing a compound of formula (I) or (I-1), a measure of anti-HBV effectiveness is obtained.
HBV producer cells, 2500 cells/well, were seeded in 96-well culture dishes in RPMI/10% fetal bovine serum/2 mM glutamine (RPMI/10/2:). […] Twenty-five uL HBV standard media dilutions in RPMI/10/2 were added to 2 rows of wells to serve as an internal standard curve for quantitation, and the plates were sealed and incubated at 4° C. overnight. […]
Polymerase chain reaction (Saiki, R. K. et al., Science, 239 (4839) 487-91 (1988)) was carried out on 5 uL samples, using a Perkin Elmer PCR kit. […] Primers were chosen from conserved regions in the HBV genome, as determined by alignment of several sequences. […]
PCR products were detected with horse radish peroxidase-labeled oligonucleotide probes (Synthecell Corp., Rockville, Md. 20850), which hybridize to biotinylated strands of denatured PCR products directly in streptavidin-coated microtiter plate wells, using essentially the method of Holodiniy, M. et al., Bio Techniques, 12 (1)37-39 (1992). […] Quantities of HBV DNA present in the original samples were calculated by comparison with standards. […]

The mark [1] stands for this setting: Hepatitis B virus, HepG2 2.2.15, read-out: Anti-HBV activity, approximate IC50 (50 percent decrease in HBV DNA), HepG2 2.2.15, P5A cell line.

pIC50: −log10 of the molar value. Read-outs that look alike come from different tables or passages of the source.

Two compounds from patent US5534535A, “Therapeutic nucleosides” (Burroughs Wellcome Co., priority 1992, dated 1996) can be followed below.

What is called pIC50 is the IC50 on a negative log10 scale, so that one unit is a factor of ten.

Turning to `OC[C@@H]1C[C@H](n2c(Br)nc3cc(Cl)c(Cl)cc32)[C@@H](O)[C@H]1O` [Ex. 69, (1R, 2S, 3S, 5S)-5-(2-Bromo-5,6-dichloro-1H-benzimidazol-1-yl)-3-(hydroxymethyl)-1,2-cyclopentanediol], the pIC50 reads like this: under setting [1], 6.14; (read-out: Anti-HBV activity, approximate IC50 (50 percent decrease in HBV DNA), HepG2 2.2.15, P5A cell line) 5.89.

Turning to `OC[C@@H]1C[C@@H](O)[C@H](n2c(Br)nc3cc(Cl)c(Cl)cc32)C1` (relative stereo) [Ex. 13, (±)-(1R*, 2R*, 4S*)-2-(2-Bromo-5,6-dichloro-1H-benzimidazol-1-yl)-4-(hydroxymethyl)cyclo-pentanol], the pIC50 under setting [1] was 5.30.
